Measurements: publication PMC5585294, “A potent series targeting the malarial cGMP-dependent protein kinase clears infection and blocks transmission” (Nature Communications, 2017)
Read-outs that look alike come from different tables or passages of the source.

Columns and labels:
[1] = tested on: P. falciparum lab isolate Dd2; experiment: In vitro selection of resistant parasites; format: cell-based, Plasmodium falciparum; conditions: 3× EC50, 10^9 parasites, up to Day 60
Experimental: P. falciparum lab isolate Dd2 (from stocks held at LSHTM) was used for this experiment and the control compound used was atovaquone. Parasites were plated in triplicate at 10^9 parasites/well and maintained until parasites were observed microscopically (using Giemsa-stained blood films) or until Day 60 whichever was the soonest. […]. Gametocytes were present initially but were absent from Day 11.

P. falciparum 3D7 = experiment: Hypoxanthine incorporation growth inhibition assay, asexual blood stage, wild-type 3D7; format: cell-based, Plasmodium falciparum; conditions: for EC50: read-out: EC50 WT
Experimental: Hypoxanthine incorporation assays[36] were performed on P. falciparum asexual blood stage parasites (wild-type 3D7 or T618Q gatekeeper mutant) to determine EC50 values for test compounds. Mixed staged parasites (primarily rings) were added to 96 well plates containing compounds at concentrations of 50 μM–0.3 nM. […] Assays were carried out in triplicate at least twice.

[2] = tested on: P. falciparum T618Q gatekeeper mutant line; experiment: Hypoxanthine incorporation growth inhibition assay, asexual blood stage, T618Q gatekeeper mutant line; format: cell-based, Plasmodium falciparum; conditions: for sensitivity of gatekeeper mutant line compared with wild type (control drugs): tested in parallel on both parasite lines; for EC50 / EC90: T618Q clonal line asexual blood stage growth, 72 h, +/- s.e.m.
Experimental: We determined that a 72 h P. falciparum (clone 3D7A; obtained from Lisa Ranford Cartwright, University of Edinburgh) growth inhibition assay was necessary for full inhibition to manifest itself and that this is due, most likely to a schizont-specific action rather than a delayed death phenotype as observed for some antibiotic macrocycles. Hypoxanthine incorporation assays[36] were performed on P. falciparum asexual blood stage parasites (wild-type 3D7 or T618Q gatekeeper mutant) to determine EC50 values for test compounds. Mixed staged parasites (primarily rings) were added to 96 well plates containing compounds at concentrations of 50 μM–0.3 nM. [^3H]-Hypoxanthine was added after 48 h to a final concentration of 0.2 μCi. The radioactivity of the labeled hypoxanthine incorporated into the parasite nucleic acids over 24 h was determined relative to untreated controls using a Wallac 1450 Microbeta scintillation counter (Perkin-Elmer). Assays were carried out in triplicate at least twice.

HepG2 cells = experiment: Cytotoxicity assay using HepG2 cells
Experimental: (§1) Compound mlm hlm mLogD PAMPA HepG2 name (%rem) (%rem) (nm/s) (IC50 µM)
(§2) Supplementary Table 2. Compound Properties. MLM, HLM, mLogD and PAMPA . mlm (%rem): % of compound remaining after 30 minutes’ incubation with mouse liver microsomes; hlm (%rem): % of compound remaining after 40 minutes’ incubation with human liver microsomes; mLogD: measured LogD at pH 7.4; PAMPA: parallel artificial membrane permeability assay; HepG2: Cytotoxicity assay using HepG2 cells; n.t.: not tested.

Measured LogD = conditions: pH 7.4
Experimental: as §1, §2

[3] = Stability in human liver microsomes
Experimental: as §1, §2

PfPKG = PfPKG (Plasmodium falciparum, UniProt Q8I719); experiment: Microfluidic mobility shift kinase assay, recombinant PfPKG wild type
Experimental: (§3) Full length PfPKG (NCBI accession code XP_001348520) with native codon usage was cloned into the pTrcHisC plasmid (Life Technologies) that includes an N-terminal His-tag as described previously[8]. […] Recombinant proteins were generated and purified using a protocol based on that described previously[8]. […] 500 ml cultures in LB Rich Broth (containing 50 μg/ml carbenicillin and 34 μg/ml chloramphenicol) were grown in a shaking incubator at 37 °C until reaching an optical density (O.D.) of 0.6–0.7. The temperature was reduced to 16 °C before induction of expression with 1 mM IPTG. Incubation at 16 °C was continued overnight.
(§4) The cultures were harvested by centrifugation at 4000×g at 4 °C for 30 min, the supernatant removed and the pellet stored at −80 °C for in excess of 1 h. The PKGs were purified via the histidine tag on HiTrap TALON (cobalt) columns (GE Healthcare) connected to an AKTA-FPLC as per the manufacturer's instruction. Fractions were analyzed by SDS-PAGE and the main peak concentrated on 10 kDa MWCO concentrators (Amicon). Purified proteins were stored in 50% glycerol at −80 °C in single use aliquots. The final buffer composition of the purified product was: 50 mM Tris/HCl pH 7.5, 0.1 mM EGTA, 150 mM NaCl, 0.1% β-mercaptoethanol, 50% glycerol, 0.03% Brij-35, 1 mM benzamidine and 0.2 mM PMSF.
(§5) IC50 values were determined for test compounds using a microfluidic mobility shift assay. Briefly, compounds were prepared over a 10-well ½ log dilution series in dimethyl sulfoxide (DMSO) in duplicate in 50 μl volumes using 384-well polypropylene U-bottomed plates (Thermo Scientific, UK). The plates contained positive/no inhibitor (DMSO only) and negative (no enzyme) controls in columns 1, 2, and 23, 24. […] Samples were pre-incubated at room temperature for 30 min and reactions were initiated by addition of 25 μl ATP mix (10 mM MgCl2 and ATP, at KM of the enzyme under test [20 µM PfPKG and 90 µM PfPKG T618Q], in water). Positive controls were complete reaction mixtures with 10% DMSO and negative controls were reaction mixtures with 10% DMSO but lacking enzyme. Reactions were allowed to proceed for 30 mins at room temperature, corresponding to conversion of approximately 10% of the substrate in the DMSO controls. Reactions were terminated by addition of 50 µl stop solution (25 mM EDTA in water). Samples were analyzed by electrophoretic separation of substrate and product peaks and fluorescence detection using a Caliper Lab Chip EZ reader. (Perkin Elmer, Waltham MA) with 0.2 s sip time, downstream voltage 500 V, upstream voltage 1950 V and pressure 0.5 to 1.5 psi. Substrate and product peak heights were measured and the ratio of the product peak height divided by the sum of the product and substrate peaks were determined using EZ reader software (version 3.0.265.0) to obtain percentage conversion (P) values. […] Liquid handling stages were conducted on a Biomek robotic liquid handler (Beckman Coulter).

[4] = Parallel artificial membrane permeability assay (PAMPA); format: in vitro ADME
Description: Compound mlm hlm mLogD PAMPA HepG2
name (%rem) (%rem) (nm/s) (IC50 µM)
Supplementary Table 2. Compound Properties. MLM, HLM, mLogD and PAMPA . mlm

[5] = Stability in mouse liver microsomes
Experimental: as §1, §2

PfPKG T618Q = PfPKG T618Q (Plasmodium falciparum, UniProt Q8I719, T618Q); experiment: Microfluidic mobility shift kinase assay, recombinant PfPKG T618Q gatekeeper mutant
Experimental: as §3, §4, §5

[6] = Plasma levels in satellite groups of mice, P. berghei experiment; format: in vivo, mouse; conditions: mice, oral 25 mg/kg, P. berghei experiment
Description: Supplementary Figure 4. Plasma concentrations over time in rodent malaria models. […] Error bars show the standard deviation. (1 picture or pasted object on this page, not shown here)

[7] = tested on: P. falciparum (NF54) gametocytes; experiment: Standard membrane feeding assay (SMFA), gametocytes fed to Anopheles stephensi; format: cell-based, Plasmodium falciparum; conditions: gametocytes pre-incubated 24 h, oocysts counted day 7 post-feed, read-out: IC50 for reduction of the intensity of infection (oocysts)
Experimental: Mature P. falciparum (NF54) gametocytes (14 day culture, 0.3–0.5% gametocytes, 2% haematocrit) were obtained from an automated tipper system and incubated with compound for 24 h as previously described. Anopheles stephensi (Sind-Kasur Nijmegen strain[39] were reared at 30 °C and 70–80% humidity, while exposed to a 12/12 h day/night cycle. On the day of feeding, the gametocyte culture was adjusted to 50% hematocrit with human red blood cells and human serum and fed to 3–5 day old mosquitoes using a glass membrane mini-feeder system containing 0.35 ml of the P. falciparum culture/compound mix[40]. Unfed and partially fed mosquitoes were removed after feeding and blood fed females were maintained at 26 °C and 70–80% humidity. Up to 20 surviving mosquitoes were collected on day 7 post-infection and oocysts were visualized using a 1% merchurochrome solution and quantified by microscopy. IC50 values were determined by logistic regression using Maximum Likelihood Estimation to find best fit[41].

P. chabaudi (AS) = experiment: Synchronous P. chabaudi AS model in BALB/c mice; format: in vivo, Plasmodium chabaudi; conditions: single daily oral dose 50 mg/kg just prior to schizogony, 4 days
Experimental: Similar experiments were performed using P. chabaudi AS (from David Walliker, University of Edinburgh) with the following modifications. To allow dosing to be carried out more conveniently during the day, reversal of the light/dark exposure of mice for 2 weeks prior to the experiment was used to switch schizogony from midnight to noon each day. Mice were dosed at different time points in an attempt to have maximal coverage at the point of schizogony. All animal work protocols carried out at LSHTM were approved and licensed by the United Kingdom Home Office as governed by law under the Animals (Scientific Procedures) Act of 1986, in strict accordance with the Code of Practice Part 1 for the housing and care of animals (21 March 2005), available at http://www.homeoffice.gov.uk/science-research/animal-research/

[8] = Cytotoxicity assay using HepG2 cells; conditions: human
Experimental: as §1, §2

[9] = tested on: P. falciparum wild-type (3D7) stage V gametocytes; experiment: Gametogenesis (rounding up) assay, wild-type 3D7 stage V gametocytes; format: cell-based, Plasmodium falciparum; conditions: 30 µM xanthurenic acid; 2 µM ML1, 1 µM ML10
Experimental: Plasmodium falciparum clone 3D7A (obtained from Dr Lisa Ranford-Cartwright, University of Edinburgh) gametocytes were initiated and cultured using an adapted version of the traditional Trager and Jenson method modified by Fivelman and colleagues. Stage V gametocytes were purified on a 60% Percoll gradient. Purified parasite samples were diluted in warm complete media (RPMI-1640 (Sigma), 0.5% Albumax (Invitrogen), 0.03% L-glutamine (Sigma), 0.2% Glucose (Sigma), 1× hypoxanthine (Sigma)), to a volume that would allow a final volume of […] per sample and a haematocrit of <10%. […] Control tubes containing DMSO only were kept at 37 °C. All other samples were incubated at room temperature for 30 min immediately after addition of test compounds. Samples were then washed once in warm RPMI followed by removal of the supernatant to leave a final haematocrit of roughly 50%. Samples were smeared on glass slides and fixed in 100% methanol (VWR) then stained for 15 min in 10% Giemsa R66 (VWR) and observed by light microscopy. The number of gametocytes at stage V and rounded up per 900 erythrocytes were counted three consecutive times to produce an average count. Numbers of parasites rounded up were compared to the no drug control.

[10] = tested on: P. falciparum gatekeeper mutant (T618Q) stage V gametocytes; experiment: Gametogenesis (rounding up) assay, T618Q stage V gametocytes; format: cell-based, Plasmodium falciparum; conditions: 30 µM xanthurenic acid; 2 µM ML1, 1 µM ML10
[11] = Plasmodium falciparum, 3D7, 72 h, 3D7 asexual blood stage growth, 72 h, +/- s.e.m.
[12] = 3D7 asexual blood stage growth, 72 h, +/- s.e.m.
[13] = % of compound remaining after 40 minutes' incubation
[14] = read-out: IC50 WT, recombinant full length 6His-tagged PfPKG, ATP at KM (20 µM), +/- s.e.m.
[15] = read-out: IC50 T618Q, recombinant PfPKG T618Q, ATP at KM (90 µM), +/- s.e.m.
[16] = Plasmodium falciparum, 3D7, 72 h

Chain of PfPKG T618Q (Q8I719 whole entry T618Q): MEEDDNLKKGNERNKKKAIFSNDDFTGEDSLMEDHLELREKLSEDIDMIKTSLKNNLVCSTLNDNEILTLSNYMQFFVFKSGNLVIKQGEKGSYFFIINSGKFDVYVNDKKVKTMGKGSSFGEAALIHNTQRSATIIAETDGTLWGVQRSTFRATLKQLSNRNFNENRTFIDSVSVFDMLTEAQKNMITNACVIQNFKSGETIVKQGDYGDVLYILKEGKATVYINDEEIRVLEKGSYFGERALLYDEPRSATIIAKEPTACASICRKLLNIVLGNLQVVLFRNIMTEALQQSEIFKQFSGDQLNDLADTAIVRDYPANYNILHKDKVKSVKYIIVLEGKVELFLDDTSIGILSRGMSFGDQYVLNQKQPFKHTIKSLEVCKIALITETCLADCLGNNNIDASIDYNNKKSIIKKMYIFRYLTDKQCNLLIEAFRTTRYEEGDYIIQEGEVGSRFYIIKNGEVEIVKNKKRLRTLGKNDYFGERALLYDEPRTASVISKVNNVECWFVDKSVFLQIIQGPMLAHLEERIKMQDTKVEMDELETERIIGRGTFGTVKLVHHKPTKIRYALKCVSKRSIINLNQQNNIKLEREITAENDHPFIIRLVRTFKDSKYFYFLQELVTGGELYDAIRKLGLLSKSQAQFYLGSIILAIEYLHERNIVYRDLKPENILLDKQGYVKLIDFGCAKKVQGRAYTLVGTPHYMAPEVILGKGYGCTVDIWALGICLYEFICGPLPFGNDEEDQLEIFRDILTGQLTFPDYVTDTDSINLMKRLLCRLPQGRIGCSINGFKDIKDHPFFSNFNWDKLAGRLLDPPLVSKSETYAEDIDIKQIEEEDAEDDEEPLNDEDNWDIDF
Chain of PfPKG (Q8I719 whole entry): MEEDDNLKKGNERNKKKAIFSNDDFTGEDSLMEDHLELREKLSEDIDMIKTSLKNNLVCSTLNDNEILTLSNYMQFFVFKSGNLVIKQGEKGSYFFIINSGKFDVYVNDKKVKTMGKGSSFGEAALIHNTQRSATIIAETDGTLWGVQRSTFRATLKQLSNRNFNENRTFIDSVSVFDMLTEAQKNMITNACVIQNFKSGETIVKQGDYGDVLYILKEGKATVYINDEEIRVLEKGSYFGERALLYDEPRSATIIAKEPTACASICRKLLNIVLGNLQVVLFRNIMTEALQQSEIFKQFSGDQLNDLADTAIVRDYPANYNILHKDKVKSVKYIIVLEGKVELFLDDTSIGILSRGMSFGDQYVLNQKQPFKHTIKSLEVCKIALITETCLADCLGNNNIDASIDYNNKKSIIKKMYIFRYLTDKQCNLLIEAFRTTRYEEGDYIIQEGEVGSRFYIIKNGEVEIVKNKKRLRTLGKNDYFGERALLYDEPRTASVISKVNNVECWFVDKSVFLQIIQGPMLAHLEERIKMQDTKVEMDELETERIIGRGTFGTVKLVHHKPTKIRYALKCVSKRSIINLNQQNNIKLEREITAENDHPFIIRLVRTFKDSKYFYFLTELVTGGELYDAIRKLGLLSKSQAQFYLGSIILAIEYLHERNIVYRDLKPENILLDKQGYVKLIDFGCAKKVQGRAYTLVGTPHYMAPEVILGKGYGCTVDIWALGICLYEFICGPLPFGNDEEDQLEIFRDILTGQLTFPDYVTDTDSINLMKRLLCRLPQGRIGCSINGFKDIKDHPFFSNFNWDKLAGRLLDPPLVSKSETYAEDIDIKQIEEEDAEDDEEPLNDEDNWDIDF

| SMILES | EC90 (P. falciparum 3D7; [12]) [nM] | EC50 (P. falciparum 3D7; [12]) [nM] | mLogD (Measured LogD) | IC50 (PfPKG; [14]) [nM] | EC50 [2] [µM] | EC90 [2] [µM] | PAMPA [4] [nm/s] | IC50 (PfPKG T618Q; [15]) [µM] | IC50 (HepG2 cells) [µM] | hlm (%rem) ([3]; human, microsomes, 40 min) [%] | mlm (%rem) ([5]; mouse, microsomes, 0.5 h) [%] | also measured |
| --- | --- | --- | --- | --- | --- | --- | --- | --- | --- | --- | --- | --- |
| O=C1C(O)=C([C@H]2CC[C@H](c3ccc(Cl)cc3)CC2)C(=O)c2ccccc21 [atovaquone] |  |  |  |  |  |  |  |  |  |  |  | selection of resistant parasites [1]: readily selected |
| CCc1nc(N)nc(N)c1-c1ccc(Cl)cc1 [Pyrimethamine, reference compound] |  |  |  |  |  |  |  |  |  |  |  | EC50 (P. falciparum 3D7; [11]): 43.3 ± 5.9 nM; sensitivity of gatekeeper mutant line compared with wild type (control drugs) [2]: resistant |
| CN(C)Cc1ccn2c(-c3ccnc(Nc4ccc(N5CCNCC5)cc4)n3)c(-c3ccc(F)cc3)nc2c1 [ML3] | 236 | 63.4 | 2.2 | 0.79 | 0.195 | 0.279 | 66.2 | 0.842 |  |  |  | IC50 (HepG2 cells; read-out: HepG2 (IC50 M), cytotoxicity): 1.9 µM; hlm (%rem) [3, 13]: 62%; mlm (%rem) ([5]; % of compound remaining after 30 minutes' incubation): 89% |
| CN(C)Cc1ccn2c(-c3ccnc(NCC4CC4)n3)c(-c3cccc(S(C)(=O)=O)c3)nc2c1 [ML6] | 142 | 102 | 2.3 | 0.13 | 1.85 | 3.49 | 114.5 | 52.5 | > 20 | 72 | 62 |  |
| Cc1cn2c(-c3ccnc(Nc4ccc(N5CCNCC5)cc4)n3)c(-c3ccc(F)cc3)nc2cc1CN(C)C [ML4] | 107 | 25.3 | 2.8 | 0.45 | 0.107 | 0.186 | 37.1 | 0.231 | 1.9 | 31 | 84 | plasma half-life [6]: 1.0 h; IC50 [7]: 61.6 nM; reduction in blood stage parasitaemia (P. chabaudi (AS)): 56.5% |
| CN(C)Cc1ccn2c(-c3ccnc(N)n3)c(-c3ccc(F)cc3)nc2c1 [ML1, 4-[7-[(dimethylamino)methyl]-2-(4-fluorophenyl)imidazo[1,2-a]pyridine-3-yl]pyrimidin-2-amine, reference compound] |  |  | 2.4 |  |  |  |  |  |  |  |  | IC50 [8]: > 20 µM; EC50 (P. falciparum 3D7; [16]): 395 nM; hlm (%rem) [3, 13]: 70%; rounding up of wild-type gametocytes [9]: blocked rounding up; IC50 (PfPKG): 3.1 nM; half-life ([6]; BALB/c, mouse, in vivo, read-out: plasma half-life (converted)): 66 min; IC50 ([7]; Plasmodium falciparum, NF54): 507 nM; reduction in blood stage parasitaemia (P. chabaudi (AS)): 67.9%; IC50 (PfPKG T618Q): 8.44 µM; rounding up of T618Q gametocytes [10]: insensitive |
| Fc1ccc(-c2nc3ccccn3c2-c2ccnc(Nc3ccc(N4CCNCC4)cc3)n2)cc1 [ML2] | 628 | 197 | 3.1 | 1.71 | 0.14 | 0.956 | 0.0 | 1.71 |  | 100 | 100 |  |
| CN(C)Cc1ccn2c(-c3ccnc(N)n3)c(-c3cccc(NS(C)(=O)=O)c3)nc2c1 [ML7] | 633 | 489 | 1.6 | 4.34 | 35.1 | 60.7 | 6.4 | > 100 | > 20 | 82 | 96 |  |
| CN(C)Cc1ccn2c(-c3ccnc(N)n3)c(-c3cccc(S(C)(=O)=O)c3)nc2c1 [ML5] | 445 | 329 | 1.5 | 0.88 | 12.7 | 61.5 | 17.7 | > 100 | > 20 | 96 | 96 |  |
| CCN(CC)CCCC(C)Nc1ccnc2cc(Cl)ccc12 (centres unmarked) [Chloroquine, reference compound] |  |  |  |  |  |  |  |  |  |  |  | EC50 (P. falciparum 3D7; [16]): 16.2 ± 1.2 nM; sensitivity of gatekeeper mutant line compared with wild type (control drugs) [2]: equivalent levels of inhibition of both parasite lines |
| Cc1cn2c(-c3ccnc(N)n3)c(-c3ccc(F)c(NS(C)(=O)=O)c3)nc2cc1CN(C)C [ML9] | 158 | 105 | 1.6 | 1.19 | 6.9 | 48.3 | 10.8 | > 100 |  | 86 | 81 |  |
| C[C@@H]1CC[C@H]2[C@@H](C)C(=O)O[C@@H]3O[C@@]4(C)CC[C@@H]1[C@]32OO4 [Artemisinin, reference compound] |  |  |  |  |  |  |  |  |  |  |  | EC50 (P. falciparum 3D7; [11]): 25.2 ± 1.5 nM; sensitivity of gatekeeper mutant line compared with wild type (control drugs) [2]: equivalent levels of inhibition of both parasite lines |
| CN(C)Cc1ccn2c(-c3ccnc(N)n3)c(-c3ccc(F)c(NS(C)(=O)=O)c3)nc2c1 [ML8] | 182 | 148 | 0.8 | 0.79 | 5.57 | 31 | 2.0 | 73.7 | > 20 | 91 | 97 |  |
